According to ChEMBL document CHEMBL5537186 (J Med Chem, 2024):
Converted amounts (≈) assume the structure as drawn.

Assays:
[1] = Metabolic stability in human hepatocytes assessed as compound remaining measured after 60 mins; format: ADME, cell-based, Hepatocyte; conditions: read-out: Stability
[2] = Kinetic aqueous solubility of compound at pH 7.4; format: physicochemical; conditions: read-out: Kinetic_solubility
[3] = Lipophilicity, logD of compound at pH 7.4; format: physicochemical; conditions: buffer

remaining at 1 h [1] [%] | solubility kinetic [2] [µM] | logD [3] | SMILES
45 | 56 (≈ 29.3 µg/mL) | 3.84 | Cc1ccc(NC(=O)N2CC[C@@H](CC(F)(F)F)C2)cc1-c1cc(O[C@@H](C)CO)nc(N2CCOCC2)c1
62 | 15 (≈ 8.05 µg/mL) | 3.86 | Cc1ccc(NC(=O)N2CC[C@@H](CC(F)(F)F)C2)cc1-c1cc(OCC(C)(C)O)nc(N2CCOCC2)c1
 | 43 (≈ 21.9 µg/mL) | 3.67 | Cc1ccc(NC(=O)N2CC[C@H](CC(F)(F)F)C2)cc1-c1cc(OCCO)nc(N2CCOCC2)c1
